Experimental data: ChEMBL document CHEMBL1201862, “PubChem BioAssay data set” (2004)
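Briefly, cells in 96-well plates were exposed to five compound concentrations for 48 h, and endpoints were estimated by linear interpolation. The concentration for 50% growth inhibition is given as GI50.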 Active and inactive are the calls of the source. Cut-off read from the data, not from the text of the source: active = GI50 up to about 1.1 µM and inactive = higher. Where a SMILES comes first, the peptide text is derived from it. The star is where a group is joined. Cbz = O=C(OCc1ccccc1)*; OBn = c1ccc(CO*)cc1

How the values were obtained:
Assay in all cases: DTP human tumour cell line panel, 48 h
A498 = test system: A498
COLO 205 = test system: COLO 205
DU-145 = test system: DU-145
HOP-62 = test system: HOP-62
Hs-578T = test system: Hs-578T
IGROV-1 = test system: IGROV-1
K562 = test system: K562
M14 = test system: M14
MCF7 = test system: MCF7
SF-268 = test system: SF-268
SF-539 = test system: SF-539
SK-MEL-2 = test system: SK-MEL-2
SK-MEL-5 = test system: SK-MEL-5
SN12C = test system: SN12C
T47D = test system: T47D
U-251 = test system: U-251
UACC-257 = test system: UACC-257
UACC-62 = test system: UACC-62
SK-MEL-28 = test system: SK-MEL-28
RPMI-8226 = test system: RPMI-8226

Compound | GI50 (A498) | GI50 (COLO 205) | GI50 (DU-145) | GI50 (HOP-62) | GI50 (Hs-578T) | GI50 (IGROV-1) | GI50 (K562) | GI50 (M14) | GI50 (MCF7) | GI50 (SF-268) | GI50 (SF-539) | GI50 (SK-MEL-2) | GI50 (SK-MEL-5) | GI50 (SN12C) | GI50 (T47D) | GI50 (U-251) | GI50 (UACC-257) | GI50 (UACC-62) | GI50 (SK-MEL-28) | GI50 (RPMI-8226)
Cc1ncc([N+](=O)[O-])n1CCNC(=O)CCCCCn1ccnc1[N+](=O)[O-] | > 100 µM (inactive) | 43.6 µM (inactive) | > 100 µM (inactive) | > 100 µM (inactive) | > 100 µM (inactive) | > 100 µM (inactive) | > 100 µM (inactive) | > 100 µM (inactive) | > 100 µM (inactive) | > 100 µM (inactive) | > 100 µM (inactive) | > 100 µM (inactive) | > 100 µM (inactive) | > 100 µM (inactive) | > 100 µM (inactive) | > 100 µM (inactive) | > 100 µM (inactive) | > 100 µM (inactive) | – | –
COc1ccc(-c2oc3c(OC)c(OC)cc(O)c3c(=O)c2OC)cc1 | 45.8 µM (inactive) | > 100 µM (inactive) | > 100 µM (inactive) | 55.8 µM (inactive) | 58.3 µM (inactive) | > 100 µM (inactive) | > 100 µM (inactive) | > 100 µM (inactive) | > 100 µM (inactive) | > 100 µM (inactive) | 28.8 µM (inactive) | > 100 µM (inactive) | 91.6 µM (inactive) | > 100 µM (inactive) | > 100 µM (inactive) | 70.8 µM (inactive) | > 100 µM (inactive) | > 100 µM (inactive) | > 100 µM (inactive) | –
COc1c(Sc2c(SCSc3cnc4ccccc4c3Sc3cnc4ccccc4c3OC)cnc3ccccc23)cnc2ccccc12 | – | > 100 µM (inactive) | > 100 µM (inactive) | 42.9 µM (inactive) | 52.2 µM (inactive) | 8.13 µM (inactive) | – | > 100 µM (inactive) | – | > 100 µM (inactive) | > 100 µM (inactive) | > 100 µM (inactive) | 24.8 µM (inactive) | > 100 µM (inactive) | > 100 µM (inactive) | 30.1 µM (inactive) | > 100 µM (inactive) | 39.1 µM (inactive) | 29 µM (inactive) | 9.2 µM (inactive)
CC(=O)OC1C(Oc2c(C)cc3c(c2O)[C@@H](C)CC[C@@H]3[C@@H](C)CCC=C(C)C)OCC(O)C1O (some centres undefined) | 20.3 µM (inactive) | 16.6 µM (inactive) | 16.2 µM (inactive) | 17.3 µM (inactive) | 21.5 µM (inactive) | 19.1 µM (inactive) | 13.5 µM (inactive) | 16.9 µM (inactive) | 20.9 µM (inactive) | 18.2 µM (inactive) | 18.5 µM (inactive) | 25.3 µM (inactive) | 18.1 µM (inactive) | 17.5 µM (inactive) | 22.4 µM (inactive) | 17.3 µM (inactive) | 18.4 µM (inactive) | 18.3 µM (inactive) | – | –
CN(Cc1cccc2ccsc12)/N=C\c1ccc(Cl)cc1 | 93.3 µM (inactive) | 74.8 µM (inactive) | > 100 µM (inactive) | > 100 µM (inactive) | > 100 µM (inactive) | > 100 µM (inactive) | 40.6 µM (inactive) | 79.4 µM (inactive) | 32.7 µM (inactive) | > 100 µM (inactive) | – | – | 15.5 µM (inactive) | > 100 µM (inactive) | 49.5 µM (inactive) | > 100 µM (inactive) | 18.8 µM (inactive) | > 100 µM (inactive) | > 100 µM (inactive) | –
COc1cc2c(cc1OC)CCc1cc(OC)c(OC)cc1CC2 | > 100 µM (inactive) | > 100 µM (inactive) | > 100 µM (inactive) | > 100 µM (inactive) | > 100 µM (inactive) | > 100 µM (inactive) | > 100 µM (inactive) | > 100 µM (inactive) | > 100 µM (inactive) | – | > 100 µM (inactive) | > 100 µM (inactive) | > 100 µM (inactive) | > 100 µM (inactive) | 31.3 µM (inactive) | > 100 µM (inactive) | > 100 µM (inactive) | > 100 µM (inactive) | > 100 µM (inactive) | –
O=[N+]([O-])c1ccc2oc(=N/c3ccccc3)/c(=N\c3ccccc3)[nH]c2c1 | 59.4 µM (inactive) | > 100 µM (inactive) | > 100 µM (inactive) | 35 µM (inactive) | 19.7 µM (inactive) | 32.1 µM (inactive) | > 100 µM (inactive) | – | – | 54.3 µM (inactive) | 39.7 µM (inactive) | 36.7 µM (inactive) | 75.9 µM (inactive) | 46.5 µM (inactive) | > 100 µM (inactive) | 40.9 µM (inactive) | > 100 µM (inactive) | 58.7 µM (inactive) | > 100 µM (inactive) | > 100 µM (inactive)
O=C1NC(=S)N(c2ccccc2)C1=O | > 100 µM (inactive) | > 100 µM (inactive) | > 100 µM (inactive) | > 100 µM (inactive) | > 100 µM (inactive) | > 100 µM (inactive) | > 100 µM (inactive) | – | – | > 100 µM (inactive) | > 100 µM (inactive) | > 100 µM (inactive) | > 100 µM (inactive) | > 100 µM (inactive) | > 100 µM (inactive) | > 100 µM (inactive) | > 100 µM (inactive) | > 100 µM (inactive) | > 100 µM (inactive) | > 100 µM (inactive)
CNC(=O)C1(C#N)C(c2ccccc2)C(C#N)(C(=O)NC)C1c1ccccc1 (centres undefined) | > 100 µM (inactive) | > 100 µM (inactive) | – | > 100 µM (inactive) | > 100 µM (inactive) | > 100 µM (inactive) | 24.4 µM (inactive) | > 100 µM (inactive) | > 100 µM (inactive) | > 100 µM (inactive) | > 100 µM (inactive) | > 100 µM (inactive) | > 100 µM (inactive) | > 100 µM (inactive) | > 100 µM (inactive) | > 100 µM (inactive) | – | – | > 100 µM (inactive) | 87.1 µM (inactive)
CCCC(CCN)(CCN)[N+](=O)[O-] | > 100 µM (inactive) | > 100 µM (inactive) | > 100 µM (inactive) | – | > 100 µM (inactive) | > 100 µM (inactive) | > 100 µM (inactive) | > 100 µM (inactive) | – | > 100 µM (inactive) | > 100 µM (inactive) | > 100 µM (inactive) | > 100 µM (inactive) | > 100 µM (inactive) | > 100 µM (inactive) | > 100 µM (inactive) | > 100 µM (inactive) | > 100 µM (inactive) | – | > 100 µM (inactive)
Cc1ccc(S(=O)(=O)NC(CCC(=O)NNc2ccccc2)C(=O)NNc2ccccc2)cc1 (centres undefined) | > 100 µM (inactive) | 13.4 µM (inactive) | – | > 100 µM (inactive) | 64.1 µM (inactive) | 91 µM (inactive) | 85.9 µM (inactive) | 9.53 µM (inactive) | 23.1 µM (inactive) | 46.8 µM (inactive) | 17.5 µM (inactive) | 13.5 µM (inactive) | 98.4 µM (inactive) | – | 5.47 µM (inactive) | 3.08 µM (inactive) | 15.1 µM (inactive) | 2.87 µM (inactive) | – | 5.58 µM (inactive)
Nc1nc2cc3nc(N)c(N)nc3cc2nc1N | > 100 µM (inactive) | > 100 µM (inactive) | > 100 µM (inactive) | – | > 100 µM (inactive) | > 100 µM (inactive) | > 10 µM (inactive) | > 100 µM (inactive) | > 100 µM (inactive) | > 100 µM (inactive) | > 100 µM (inactive) | > 100 µM (inactive) | > 100 µM (inactive) | > 100 µM (inactive) | – | > 100 µM (inactive) | > 100 µM (inactive) | > 100 µM (inactive) | > 100 µM (inactive) | > 100 µM (inactive)
COCC(C#N)NC1CC(OC2CC(O)(C(=O)CO)Cc3c(O)c4c(c(O)c32)C(=O)c2c(OC)cccc2C4=O)OC(C)C1O (centres undefined) | 0.0383 µM (active) | 0.0483 µM (active) | 0.0412 µM (active) | 0.0287 µM (active) | 0.161 µM (active) | 0.0404 µM (active) | 0.0415 µM (active) | 0.134 µM (active) | < 0.01 µM (active) | 0.0419 µM (active) | 0.0415 µM (active) | 0.136 µM (active) | 0.0303 µM (active) | 0.0422 µM (active) | – | 0.0286 µM (active) | 0.091 µM (active) | 0.0574 µM (active) | 0.156 µM (active) | 0.0282 µM (active)
O=C1C(Cl)=C(NCCN2CCOCC2)C(=O)c2ncccc21 | 2.97 µM (inactive) | – | 1.66 µM (inactive) | 2.12 µM (inactive) | 2.11 µM (inactive) | 1.97 µM (inactive) | 0.378 µM (active) | 1.61 µM (inactive) | 1.66 µM (inactive) | 1.99 µM (inactive) | 1.72 µM (inactive) | – | 0.723 µM (active) | 1.73 µM (inactive) | 2.45 µM (inactive) | 1.66 µM (inactive) | 1.71 µM (inactive) | 1.33 µM (inactive) | 1.84 µM (inactive) | –
COC(=O)C(Cc1ccc(O)cc1)NC(=O)C(CC(=O)OCc1ccccc1)NC(=O)OCc1ccccc1 (centres undefined) (Cbz-Asp(OBn)-Tyr-OMe; configuration not given here) | 20.6 µM (inactive) | 19.1 µM (inactive) | – | 19.7 µM (inactive) | 24.9 µM (inactive) | 17.3 µM (inactive) | 42.5 µM (inactive) | 22.2 µM (inactive) | > 10 µM (inactive) | – | – | 19.2 µM (inactive) | 18.2 µM (inactive) | 21 µM (inactive) | 19.5 µM (inactive) | 20.3 µM (inactive) | 21.2 µM (inactive) | – | 17.1 µM (inactive) | 24.9 µM (inactive)
